Peptide text beside a SMILES is read from it.
Experiment: Accelerated stability study of blends: chemical compatibility of sweeteners with Compound 1B (assay potency)
Format: physicochemical
Description: The chemical compatibility between these excipients and Compound 1B was evaluated through an accelerated stability study. The formulation samples were prepared as blends, then stored at 25° C./60% RH and 40° C./75% RH for up to four weeks.
Chemical stability of the blends was evaluated both in the presence and absence of high-intensity sweeteners, and the results are summarized in Table 2.

Q: For `O=C1NS(=O)(=O)c2ccccc21` [Saccharin], which “Chemical stability (compatibility with Compound 1B)” value (“Chemical stability” below) is on record?
A: The value was “Incompatible”.

Q: Which “Chemical stability” value does the source give for `COC(=O)[C@H](Cc1ccccc1)NC(=O)[C@@H](N)CC(=O)O` [Aspartame] (H-Asp-Phe-OMe) here?
A: Its value is “Compatible”.

Q: With `OC[C@H]1O[C@H](O[C@]2(CCl)O[C@H](CCl)[C@@H](O)[C@@H]2O)[C@H](O)[C@@H](O)[C@H]1Cl` [Sucralose] as the compound, how does the “Chemical stability” value read?
A: Its value is “Compatible”.

Q: With `CC1=CC(=O)[N-]S(=O)(=O)O1.[K+]` [Acesulfame-K] as the compound, how does the “Chemical stability” value read?
A: The value was “Compatible”.
